In brackets after ≈: the same amount, converted by molar mass. Several values for one entry are separate records, joined by “and”; a condition that tells them apart may be missing. Identical values can stand only once. Like-named read-outs stand apart in the source and are kept apart here.
Legend:
[1] = tested on: Staphylococcus epidermidis biofilm; test: Checkerboard combination assay, biofilm eradication; format: cell-based; details: for MBEC Alone ATB: antibiotic alone
Protocol: The effect of the combination of ATBs with NPs on the preformed biofilm was evaluated by determining the FICI, as described above for biofilm formation, with slight modifications. After biofilm formation for 24 h, the plate was gently emptied and washed three times with PBS. Then, 50 µL of ATBs and 50 µL of NPs were introduced to the plate. The final concentration ranges from 0.0625 to 128 µg/mL and from 4 to 512 µg/mL for ATBs and NPs, respectively, and is incubated at 37°C for 24 h. After incubation, the medium was gently removed, and the plate was washed three times with PBS. At the end of the incubation time, the MTT reduction assay was performed, and the MBEC was determined. To assess the effect of the combination, the FICI was calculated and interpreted as described above.

[2] = tested on: planktonic cells of Staphylococcus saprophyticus; test: Checkerboard combination assay, planktonic cells; format: cell-based; details: S. saprophyticus, mean; for MIC: Staphylococcus saprophyticus
Protocol: (§1) The checkerboard assay, as previously described, was used for the determination of the fractional inhibitory concentration index (FICI). Briefly, 50 µL of MHB was distributed into each well of a 96-well microplate. ATBs were serially diluted along the abscissa, and NPs were serially diluted along the ordinate. Then, 100 µL of bacterial inoculum (1.5 × 10^6 CFU/mL) was added to each well and incubated at 37°C for 24 h. The final concentration ranged from 0.125 to 128 µg/mL for ATBs and 4–512 µg/mL for NPs. After incubation, a volume of 40 µL of INT solution (0.2 mg/mL) was added to each well, and the microplate was incubated at 37°C for 30 min. The wells containing bacterial inoculum and MHB were used as a positive control, while wells containing only MHB + 1% glucose were used as a negative control and used as a blank. Viable bacteria cells change the yellow dye of INT to a pink color. The MICs were considered to be the lowest NP concentrations that prevented the color change medium. Subsequently, the FICI was calculated according to the formula FICI = (MIC of the ATBs in combination/MIC of the ATBs alone) + (MIC of a natural substance in combination/MIC of the natural substance alone). FICI values were interpreted as follows: synergy when FICI ≤ 0.5; additive when 0.5 < FICI ≤ 1; indifference when 1 < FICI ≤ 4; and antagonism when FICI > 4.

[3] = tested on: planktonic cells of Staphylococcus aureus; test: Checkerboard combination assay, planktonic cells; format: cell-based; details: Staphylococcus aureus, S. aureus, mean
Protocol: as §1

S. aureus biofilm = test: Biofilm eradication assay (MBEC, MTT); format: cell-based, Staphylococcus aureus; details: Staphylococcus aureus, 24 h; geometric mean, S. aureus (n = 3)
Protocol: The determination of the biofilm eradication potential of NPs and ATBs was performed as previously described. Briefly, 100 µL of bacterial inoculum (1.5 × 10^6 CFU/mL) and 100 µL of MHB + 1% glucose were introduced into the microplate, incubated at 37°C for 24 h, and the microplate was gently emptied and washed three times with PBS. Then, 200 µL of ATBs or NPs at respective concentrations ranging from 8 to 1024 µg/mL and from 16 to 2048 µg/mL were incubated at 37°C for 24 h. Once incubation was completed, the microplate was processed as described above, and the percentage of biofilm eradication was calculated using the formula below. The minimal biofilm eradicating concentration (MBEC) was recorded as the lowest concentration of the test sample that reduces 100% of biofilm:(2) % biofilm eradication=ODcontrol−ODblank−ODtest−ODblank/ODcontrol−ODblank×100.

S. epidermidis = test: MIC and MBC, broth microdilution; format: cell-based, Staphylococcus epidermidis; details: Staphylococcus epidermidis, geometric mean, S. epidermidis (n = 3); for MBC: read-out: MBC; for MIC: read-out: MIC
Protocol: (§2) Seven clinical isolates of Staphylococcus spp. including 2 S. aureus, 3 S. saprophyticus, and 2 S. epidermidis were used. They were isolated from urine samples in our previous study. Two reference strains (S. aureus ATCC1026 and S. epidermidis ATCC35984) obtained from the American Type Culture Collection were also included. They were kept in the mixture of glycerol and Mueller Hinton Broth (MHB) (1:1) at −20°C, and the activation was achieved using the streak technique on Mueller Hinton agar (MHA) medium.
(§3) The MICs of ATBs and NPs were determined by the broth microdilution method as previously described. NPs and ATBs were, respectively, prepared at 4096 µg/mL and 512 µg/mL and serially diluted twofold with MHB in a 96-well microplate at a volume of 100 µL. Then, the wells were filled with 100 µL of inoculum (1.5 × 10^6 CFU/mL) to give final concentrations ranging from 1024 µg/mL to 0.5 µg/mL and 128 µg/mL to 0.062 µg/mL of NPs and ATBs, respectively. The microplates were incubated for 24 h at 37°C. Wells containing only bacterial inoculum were used as the negative control. After incubation, a volume of 40 µL of INT solution (0.2 mg/mL) was added to each well, and the microplate was incubated at 37°C for 30 min. Viable bacteria cells change the yellow dye of INT to a pink color. The MIC was considered as the lowest concentration of the sample at which there was no change in the coloration of the medium, corresponding to the complete inhibition of microbial growth.
(§4) All tests were performed in triplicate.

S. saprophyticus = test: MIC and MBC, broth microdilution; format: cell-based, Staphylococcus saprophyticus; details: Staphylococcus saprophyticus, geometric mean, S. saprophyticus (n = 3); for MBC: read-out: MBC; for MIC: read-out: MIC
Protocol: as §2, §3, §4

[4] = S. epidermidis biofilm eradication, mean MBEC

| SMILES | MBEC Alone ATB [1, 4] [µg/mL] | MIC ([2]; 24 h, read-out: MIC alone, ATB) [µg/mL] | MIC ([2]; read-out: MIC alone, ATB) [µg/mL] | MIC ([3]; 24 h, read-out: MIC alone, ATB) [µg/mL] | MIC ([3]; read-out: MIC alone, ATB) [µg/mL] | minimal effective concentration (S. aureus biofilm) [µg/mL] | MBC (S. epidermidis; antibiotics) [µg/mL] | MIC (S. epidermidis) [µg/mL] | MBC (S. saprophyticus; antibiotics) [µg/mL] | MIC (S. saprophyticus) [µg/mL] | MIC ([2]; 24 h, read-out: MIC alone, NPs) [µg/mL] | MIC ([2]; read-out: MIC alone, NPs) [µg/mL] | MIC ([3]; 24 h, read-out: MIC alone, NPs) [µg/mL] | MIC ([3]; read-out: MIC alone, NPs) [µg/mL] | MBC (S. epidermidis; natural products) [µg/mL] | MBC (S. saprophyticus; natural products) [µg/mL] | other results |
| --- | --- | --- | --- | --- | --- | --- | --- | --- | --- | --- | --- | --- | --- | --- | --- | --- | --- |
| NCC[C@H](O)C(=O)N[C@@H]1C[C@H](N)[C@@H](O[C@H]2O[C@H](CN)[C@@H](O)[C@H](O)[C@H]2O)[C@H](O)[C@H]1O[C@H]1O[C@H](CO)[C@@H](O)[C@H](N)[C@H]1O [Amikacin, amikacin] | 21.33 | 22 | 22 | 4.33 | 4.33 | 13.3 | > 128 | 1.16 (≈ 1.98 µM) | > 128 | 22 (≈ 37.6 µM) | – | – | – | – | – | – | – |
| CC1=CC(=O)c2c(O)cccc2C1=O [Plumbagin, plumbagin] | – | – | – | – | – | 32 | – | 90.7 (≈ 482 µM) | – | 8.66 (≈ 46 µM) | 8.66 | 8.33 | 4.66 | 4.66 | > 1020 | > 1020 | MBEC Alone NPs ([1]; S. epidermidis, biofilm eradication, mean, listed as Plu): 13.33 µg/mL and 16 µg/mL |
| COc1ccc2cc3[n+](cc2c1OC)CCc1cc2c(cc1-3)OCO2 [Berberine, berberine] | – | – | – | – | – | 149 | – | 213 | – | 149 | 213 | 213 | 139 | 139 | > 1020 | > 1020 | MBEC Alone NPs ([1]; S. epidermidis biofilm eradication, natural product alone, mean MBEC, listed as Ber): 170.66 µg/mL and 149.33 µg/mL and 213.33 µg/mL; MIC alone, NPs ([2]; listed as Ber): 298.66 µg/mL |
| Cc1ccc(C(C)C)c(O)c1 [Thymol, thymol] | – | – | – | – | – | 107 | – | 341 (≈ 2270 µM) | – | 341 (≈ 2270 µM) | 341 | 341 | 299 | 299 | > 1020 | > 1020 | MBEC Alone NPs ([1]; S. epidermidis biofilm eradication, natural product alone, mean MBEC, listed as Thy): 128 µg/mL and 106.66 µg/mL |
| O=C(O)c1cc(O)c(O)c(O)c1 [Gallic acid, 3,4,5-trihydroxybenzoic acid] | – | – | – | – | – | 299 | – | 427 (≈ 2510 µM) | – | 427 (≈ 2510 µM) | 427 | 427 | 427 | 427 | > 1020 | > 1020 | MBEC Alone NPs ([1]; S. epidermidis biofilm eradication, natural product alone, mean MBEC, listed as Gal): 266.66 µg/mL and 298.66 µg/mL and 426.66 µg/mL |
| CC[C@H]1OC(=O)[C@H](C)[C@@H](O[C@H]2C[C@@](C)(OC)[C@@H](O)[C@H](C)O2)[C@H](C)[C@@H](O[C@@H]2O[C@H](C)C[C@H](N(C)C)[C@H]2O)[C@](C)(O)C[C@@H](C)C(=O)[C@H](C)[C@@H](O)[C@]1(C)O [Erythromycin, erythromycin] | 18.66 | 4.66 | 4.66 | 108 | 108 | 42.8 | > 128 | 32.7 (≈ 44.5 µM) | > 128 | 4.66 (≈ 6.35 µM) | – | – | – | – | – | – | – |

Source: publication PMC12339163, “Combining Plant Bioactives With Antibiotics for Enhanced Antibiofilm Activity Against Uropathogenic Staphylococcus spp. and Cytotoxicity Evaluation” (Advances in Pharmacological and Pharmaceutical Sciences, 2025)
